Peptide text beside a SMILES is read from it. * marks the point of attachment. Dansyl = CN(C)c1cccc2c(S(=O)(=O)*)cccc12
How the values were obtained:
[1] = tested on: Dnc-PR20/Kapβ2; assay: Screening for DPRs-Kapβ2 binding inhibitors with additives (probe fluorescence attenuation); design: species or system human; conditions: Dnc-PR20 300 nM, Kapβ2 400 nM
Method: A buffer solution (20 mM Tris-HCl (pH 7.5), 150 mM NaCl, and 2 mM DTT (final concentration)) was used to prepare a mixture of Dnc-PR20 (final concentration 300 nM) and Kapβ2 (final concentration 400 nM), and an automatic dispensing system (Andrew+, Andrew Alliance) was used to add 20 µL/well of each to a 384-well microplate (Corning, 3820). After incubation at 35°C for 10 min, the fluorescence intensity (fluorescence wavelength: 520 nm) and fluorescence spectrum (fluorescence wavelength: 400-700 nm) were measured at an excitation wavelength of 340 nm using a microplate reader (Cytation 5, BioTek). Then, 5 µL/well of various concentrations of additives (poly K50 or IgG/pure water) were added using an automated pipetting system, and after incubation at 35°C for 10 minutes, the fluorescence intensity and fluorescence spectrum were measured under the same conditions. As a control, the Dnc-PR20 solution without Kapβ2 was measured for fluorescence intensity and fluorescence spectrum in the same manner.
In addition to poly K50 and IgG, the 520 nm fluorescence intensity of Dnc-PR20 was measured with PAMAM, GST-M9M, RanGTP, ATP, and HSA as additives, using the same procedure as in Section 6 above.

[2] = tested on: Kapβ2; assay: Kapβ2-induced fluorescence change of dansyl-DPR probes; assay type: binding, human; conditions: for fluorescence intensity / spectrum change on addition of Kapβ2: various Kapβ2 concentrations
Method: (§1) A buffer solution (20 mM Tris-HCl (pH 7.5), 150 mM NaCl, and 2 mM DTT (final concentration)) was used to prepare the probe solutions (final concentration 300 nM) for probes 1 to 7 above. Each probe solution was added to a 384-well microplate (Corning, 3575) at 30 µL/well using an automated pipetting system (Andrew+, Andrew Alliance). After incubation at 35°C for 10 min, fluorescence intensity (fluorescence wavelength: 520 nm) and fluorescence spectrum (fluorescence wavelength: 400-700 nm) at an excitation wavelength of 340 nm were measured using a microplate reader (Cytation 5, BioTek). Then, various concentrations of Kapβ2 solution (Kapβ2/pure water) were added to the 384-well microplate at 30 µL/well using an automated pipetting system. After incubation at 35°C for 10 minutes, fluorescence intensity and fluorescence spectrum were measured under the same conditions as above.

[3] = tested on: MBP-FUS; assay: FUS-induced fluorescence change of dansyl-DPR probes; assay type: binding, human; conditions: for fluorescence intensity / spectrum change on addition of MBP-FUS: various MBP-FUS concentrations
Method: as §1
The same procedure as in Section 2 above was used, except that MBP-tagged FUS (MBP-FUS) solution (MBP-FUS/pure water) was used in place of the Kapβ2 solution, to measure the fluorescence intensity and fluorescence spectra of Dnc-PR20 (probe 1) and Dnc-GP20 (probe 2).

[4] = tested on: β-lactoglobulin; assay: Fluorescence change of probes by various proteins: β-lactoglobulin; assay type: binding, bovine; conditions: for fluorescence spectrum / 540 nm fluorescence intensity change on addition of β-lactoglobulin: 1600 nM protein solution, probe 300 nM
Method: as §1
(§2) The fluorescence intensity and fluorescence spectra of Dnc-PR20 (probe 1) and Dnc-GP20 (probe 2) were measured using the same procedure as described in Section 2 above, except that aqueous solutions (1600 nM) of bovine milk-derived β-lactoglobulin, human serum-derived α1-antitrypsin, human serum-derived albumin (HSA), human serum-derived apotransferrin, chicken egg white-derived lysozyme, or human serum-derived immunoglobulin G (IgG) were used in place of the Kapβ2 solution.

[5] = tested on: α1-antitrypsin, albumin (HSA), apotransferrin, lysozyme, immunoglobulin G (IgG); assay: Fluorescence change of probes by various proteins: other control proteins; assay type: binding, human; chicken; conditions: 1600 nM protein solutions; probe 300 nM
Method: as §1, §2

[6] = tested on: Imb-2; assay: Fluorescence change of probes by LLPS-related proteins: Imb-2; assay type: binding, C. elegans; conditions: Imb-2 solution 800 nM (Figure 8)
Method: as §1
(§3) In addition to the proteins tested in Sections 2 to 4 above, aqueous solutions of proteins that may be relevant to the formation or control of liquid-liquid phase separation (LLPS) were used to measure the 520 nm fluorescence intensity of Dnc-PR20 (probe 1) and Dnc-GP20 (probe 2). The following proteins were used as proteins that may be associated with the formation or regulation of LLPS were Imb-2, hnRNPA2LC, PPIA, Impα, Impβ, GST-M9M, and RanGTP. […]

[7] = tested on: Impα; assay: Fluorescence change of probes by LLPS-related proteins: Impα; assay type: binding, human; conditions: Impα solution 1600 nM (Figure 8)
Method: as §1, §3

[8] = tested on: Impβ; assay: Fluorescence change of probes by LLPS-related proteins: Impβ; assay type: binding, human; conditions: Impβ solution 1600 nM (Figure 8)
Method: as §1, §3

[9] = probe 300 nM, excitation 340 nm

With 50-mer polylysine [poly K50] the “fluorescence intensity change of Dnc-PR20 in Dnc-PR20/Kapβ2 solution” value ([1]; additive 0-300 nM) was “decreased in a poly K50 concentration-dependent manner”, the “additive concentration resulting in a fluorescence intensity comparable to that of the control” value ([1]; control = Dnc-PR20 solution without Kapβ2) was 200 nM and the “520 nm fluorescence intensity change of Dnc-PR20 in Dnc-PR20/Kapβ2 mixture” value ([1]; various additives (Figure 10)) was “attenuated”.

CN(C)c1cccc2c(S(=O)(=O)NCC(=O)N3CCC[C@H]3C(=O)NCC(=O)N3CCC[C@H]3C(=O)NCC(=O)N3CCC[C@H]3C(=O)NCC(=O)N3CCC[C@H]3C(=O)NCC(=O)N3CCC[C@H]3C(=O)NCC(=O)N3CCC[C@H]3C(=O)NCC(=O)N3CCC[C@H]3C(=O)NCC(=O)N3CCC[C@H]3C(=O)NCC(=O)N3CCC[C@H]3C(=O)NCC(=O)N3CCC[C@H]3C(=O)O)cccc12 [Dnc-GP10, Dansyl-NH-(Gly-Pro)10-COOH] (Dansyl-GPGPGPGPGPGPGPGPGPGP-OH) was tested, and the “fluorescence intensity / spectrum change on addition of Kapβ2” value [2, 9] was “unchanged”.

With CN(C)c1cccc2c(S(=O)(=O)NCC(=O)N3CCC[C@H]3C(=O)NCC(=O)N3CCC[C@H]3C(=O)NCC(=O)N3CCC[C@H]3C(=O)NCC(=O)N3CCC[C@H]3C(=O)NCC(=O)N3CCC[C@H]3C(=O)NCC(=O)N3CCC[C@H]3C(=O)NCC(=O)N3CCC[C@H]3C(=O)NCC(=O)N3CCC[C@H]3C(=O)NCC(=O)N3CCC[C@H]3C(=O)NCC(=O)N3CCC[C@H]3C(=O)NCC(=O)N3CCC[C@H]3C(=O)NCC(=O)N3CCC[C@H]3C(=O)NCC(=O)N3CCC[C@H]3C(=O)NCC(=O)N3CCC[C@H]3C(=O)NCC(=O)N3CCC[C@H]3C(=O)NCC(=O)N3CCC[C@H]3C(=O)NCC(=O)N3CCC[C@H]3C(=O)NCC(=O)N3CCC[C@H]3C(=O)NCC(=O)N3CCC[C@H]3C(=O)NCC(=O)N3CCC[C@H]3C(=O)O)cccc12 [Dnc-GP20, Dansyl-NH-(Gly-Pro)20-COOH] (Dansyl-GPGPGPGPGPGPGPGPGPGPGPGPGPGPGPGPGPGPGPGP-OH) the “fluorescence intensity / spectrum change on addition of Kapβ2” value [2, 9] was “little changed”, the “fluorescence intensity / spectrum change on addition of MBP-FUS” value [3, 9] was “hardly changed” and the “fluorescence spectrum / 540 nm fluorescence intensity change on addition of β-lactoglobulin” value [4] was “did not exhibit substantial changes”. The “fluorescence spectrum change on addition of the other proteins” value [5] was “did not exhibit substantial changes”.

In the case of CN(C)c1cccc2c(S(=O)(=O)NCC(=O)N[C@@H](CCCNC(=N)N)C(=O)NCC(=O)N[C@@H](CCCNC(=N)N)C(=O)NCC(=O)N[C@@H](CCCNC(=N)N)C(=O)NCC(=O)N[C@@H](CCCNC(=N)N)C(=O)NCC(=O)N[C@@H](CCCNC(=N)N)C(=O)NCC(=O)N[C@@H](CCCNC(=N)N)C(=O)NCC(=O)N[C@@H](CCCNC(=N)N)C(=O)NCC(=O)N[C@@H](CCCNC(=N)N)C(=O)NCC(=O)N[C@@H](CCCNC(=N)N)C(=O)NCC(=O)N[C@@H](CCCNC(=N)N)C(=O)O)cccc12 [Dnc-GR10, Dansyl-NH-(Gly-Arg)10-COOH] (Dansyl-GRGRGRGRGRGRGRGRGRGR-OH), the “fluorescence intensity / spectrum change on addition of Kapβ2” value [2, 9] is reported as “increased in a Kapβ2 concentration-dependent manner”.

C[C@H](NC(=O)[C@@H]1CCCN1C(=O)[C@H](C)NC(=O)[C@@H]1CCCN1C(=O)[C@H](C)NC(=O)[C@@H]1CCCN1C(=O)[C@H](C)NC(=O)[C@@H]1CCCN1C(=O)[C@H](C)NC(=O)[C@@H]1CCCN1C(=O)[C@H](C)NC(=O)[C@@H]1CCCN1C(=O)[C@H](C)NC(=O)[C@@H]1CCCN1C(=O)[C@H](C)NC(=O)[C@@H]1CCCN1C(=O)[C@H](C)NC(=O)[C@@H]1CCCN1C(=O)[C@H](C)NC(=O)[C@@H]1CCCN1S(=O)(=O)c1cccc2c(N(C)C)cccc12)C(=O)O [Dnc-PA10, Dansyl-NH-(Pro-Ala)10-COOH] (Dansyl-PAPAPAPAPAPAPAPAPAPA-OH) was tested, and the “fluorescence intensity / spectrum change on addition of Kapβ2” value [2, 9] was “unchanged”.

CN(C)c1cccc2c(S(=O)(=O)N3CCC[C@H]3C(=O)N[C@@H](CCCNC(=N)N)C(=O)N3CCC[C@H]3C(=O)N[C@@H](CCCNC(=N)N)C(=O)N3CCC[C@H]3C(=O)N[C@@H](CCCNC(=N)N)C(=O)N3CCC[C@H]3C(=O)N[C@@H](CCCNC(=N)N)C(=O)N3CCC[C@H]3C(=O)N[C@@H](CCCNC(=N)N)C(=O)N3CCC[C@H]3C(=O)N[C@@H](CCCNC(=N)N)C(=O)N3CCC[C@H]3C(=O)N[C@@H](CCCNC(=N)N)C(=O)N3CCC[C@H]3C(=O)N[C@@H](CCCNC(=N)N)C(=O)N3CCC[C@H]3C(=O)N[C@@H](CCCNC(=N)N)C(=O)N3CCC[C@H]3C(=O)N[C@@H](CCCNC(=N)N)C(=O)O)cccc12 [Dnc-PR10, Dansyl-NH-(Pro-Arg)10-COOH] (Dansyl-PRPRPRPRPRPRPRPRPRPR-OH) was tested, and the “fluorescence intensity / spectrum change on addition of Kapβ2” value [2, 9] was “increased in a Kapβ2 concentration-dependent manner”.

In the case of CN(C)c1cccc2c(S(=O)(=O)N3CCC[C@H]3C(=O)N[C@@H](CCCNC(=N)N)C(=O)N3CCC[C@H]3C(=O)N[C@@H](CCCNC(=N)N)C(=O)N3CCC[C@H]3C(=O)N[C@@H](CCCNC(=N)N)C(=O)N3CCC[C@H]3C(=O)N[C@@H](CCCNC(=N)N)C(=O)N3CCC[C@H]3C(=O)N[C@@H](CCCNC(=N)N)C(=O)N3CCC[C@H]3C(=O)N[C@@H](CCCNC(=N)N)C(=O)N3CCC[C@H]3C(=O)N[C@@H](CCCNC(=N)N)C(=O)N3CCC[C@H]3C(=O)N[C@@H](CCCNC(=N)N)C(=O)N3CCC[C@H]3C(=O)N[C@@H](CCCNC(=N)N)C(=O)N3CCC[C@H]3C(=O)N[C@@H](CCCNC(=N)N)C(=O)N3CCC[C@H]3C(=O)N[C@@H](CCCNC(=N)N)C(=O)N3CCC[C@H]3C(=O)N[C@@H](CCCNC(=N)N)C(=O)N3CCC[C@H]3C(=O)N[C@@H](CCCNC(=N)N)C(=O)N3CCC[C@H]3C(=O)N[C@@H](CCCNC(=N)N)C(=O)N3CCC[C@H]3C(=O)N[C@@H](CCCNC(=N)N)C(=O)N3CCC[C@H]3C(=O)N[C@@H](CCCNC(=N)N)C(=O)N3CCC[C@H]3C(=O)N[C@@H](CCCNC(=N)N)C(=O)N3CCC[C@H]3C(=O)N[C@@H](CCCNC(=N)N)C(=O)N3CCC[C@H]3C(=O)N[C@@H](CCCNC(=N)N)C(=O)N3CCC[C@H]3C(=O)N[C@@H](CCCNC(=N)N)C(=O)O)cccc12 [Dnc-PR20, Dansyl-NH-(Pro-Arg)20-COOH] (Dansyl-PRPRPRPRPRPRPRPRPRPRPRPRPRPRPRPRPRPRPRPR-OH), the “540 nm fluorescence intensity increase compared to the fluorescence intensity at 0 nM Kapβ2” value ([2]; 1600 nM Kapβ2, probe 300 nM, excitation 340 nm) is reported as “approximately 6.1 fold”, the 520 nm fluorescence ([2]; Kapβ2 solution 1600 nM (Figure 8)) is reported as “above 1000” and the “fluorescence intensity / spectrum change on addition of Kapβ2” value [2, 9] is reported as “increased in a Kapβ2 concentration-dependent manner”. For the same compound, the “540 nm fluorescence intensity increase compared to the fluorescence intensity at 0 nM MBP-FUS” value ([3]; 1600 nM MBP-FUS, probe 300 nM, excitation 340 nm) was “approximately 4.6 fold”, the 520 nm fluorescence ([3]; MBP-FUS solution 1600 nM (Figure 8)) was “above 1000” and the “fluorescence intensity / spectrum change on addition of MBP-FUS” value [3, 9] was “increased in an MBP-FUS concentration-dependent manner”. The “fluorescence spectrum / 540 nm fluorescence intensity change on addition of β-lactoglobulin” value [4] was “slightly increased”, the 520 nm fluorescence ([4]; β-lactoglobulin solution 1600 nM (Figure 8)) was “above 1000” and the “fluorescence spectrum change on addition of the other proteins” value [5] was “did not exhibit substantial changes”. For the same compound, the 520 nm fluorescence [6] was “above 1000”, the 520 nm fluorescence [7] was “above 1000” and the 520 nm fluorescence [8] was “above 1000”.

“Dansyl-NH-(Gly-Ala)19-COOH (Dansyl-GAGAGAGAGAGAGAGAGAGA-OH) [Dnc-GA10]” was tested, and the “fluorescence intensity / spectrum change on addition of Kapβ2” value [2, 9] was “unchanged”.
